Measurements as given in patent US11932599B2, “Ferroptosis inducing compound, compositions comprising the same, and methods of inducing ferroptosis” (UNIVERSITY OF MASSACHUSETTS, priority 2021, dated 2024).

Columns and labels:
HT-1080 cells [1] = experiment: Cell viability assay (Alamar Blue), cytotoxicity in HT-1080 cells; assay type: cell-based, human
Procedure: Cell lines and media. In the following example, HT-1080 (Human fibrosarcoma harboring NrasQ61K) cells (obtained from ATCC) were grown in DMEM high-glucose media with 1% non-essential amino acids (Life Technologies) and 10% FBS. 143B cells were grown in DMEM high-glucose media with 1% glutamine and 10% FBS. Calu-1 cells were grown in McCoy's 5A media (Life Technologies) supplemented with 10% FBS. All the cell lines were grown at 37° C. under 5% CO2. Cell lines were not tested for mycoplasma. In addition, the panel of four lung cancer (NCI-H23; SK-Mes-1; Calu6 and A549) were purchased from ATCC. They were cultured according to the ATCC protocol of each cell line. The non-malignant breast epithelial cells (MCF10A) were maintained in DMEM/F12 medium supplemented with 5% horse serum, epidermal growth factor (20 ng/ml), insulin (10 μg/ml), hydrocortisone ([…]), cholera toxin (100 ng/ml), and penicillin/streptomycin.
Cell viability assay. 9,000 cells per 100 μl were seeded in each well in 96-well plates. Lethal compounds were dissolved in DMSO. In the mother plates, DMSO stock of each compound was further diluted with media to create 20 μM or 10 μm as highest concentrations, respectively and a twofold, 9-point dilution series was prepared. Cells were seeded for 24 h and media were replaced by the mother plate drug-dilution media. When ferroptosis inhibitors (for example, 500 nM Ferrostatin-1, 100 μM α-tocopherol, 152 μM deferoxamine) were used in cotreatments with lethal inducers, they were supplemented to cell culture when the lethal compounds were added, and the cells were then incubated for 48 h. When other cell-death-modulating compounds (100 nM sodium selenite) were used in cotreatments, they were supplemented to cell culture for 24 h before lethal compounds were added to cell culture, after which cells were further incubated for 48 h at 37° C. under 5% CO2. On the day of the viability measurement, we added 25 μl per well of 50% Alamar Blue diluted in media (Life Technologies) and further incubated the cells at 37° C. for 6 h. Fluorescence intensity (excitation/emission: 540/590) was measured with a Victor 3 plate reader (PerkinElmer), and the normalized viability was calculated as VL=(IL−I0)/(IV−I0), where VL is the normalized viability, I0 is the raw fluorescence intensities from the wells containing media, IV is the cells treated with a vehicle (negative control), and IL is the cells with the lethal compound (L), respectively. The viability was typically measured in at least biological duplicate. A representative dose-response curve, the mean and standard error of normalized viability from one replicate were plotted.
Statistical analysis and data visualization. Dose-response curve plotting and EC50 computation were performed with Prism 6.0c (GraphPad Software).
Various compounds were selected for analysis of their cytotoxicity in HT-1080 cells according to the procedure described above.

HT-1080 cells [2] = experiment: Cell viability assay in HT-1080 cells, cotreatment with cell-death inhibitors; assay type: cell-based, human; settings: HT-1080, 48 h; for EC50: Homo sapiens, read-out: EC50 (μM) of FIN56 + inhbitor
[3] = HT-1080 cells, compound alone, read-out: EC 50
[4] = Homo sapiens, HT-1080, HT-1080 cells, compound alone, read-out: EC 50

O=S(=O)(NC12CC(C1)C2)c1ccc2c(c1)C(=NO)c1cc(S(=O)(=O)NC34CC(C3)C4)ccc1-2 [TKD1026, N^2,N^7-di(bicyclo[1.1.1]pentan-1-yl)-9-(hydroxyimino)-9H-fluorene-2,7-disulfonamide]
EC50 (HT-1080 cells [1]; [3]): 1.7 µM
EC50 (HT-1080 cells [1]; [4]): < 2 µM

CNS(=O)(=O)c1ccc2c(c1)C(=NO)c1cc(S(=O)(=O)NC)ccc1-2 [TKD1034A, 9-(hydroxyimino)-N^2,N^7-dimethyl-9H-fluorene-2,7-disulfonamide]
EC50 (HT-1080 cells [1]; [4]): 12.1 µM

CCC(CC)NS(=O)(=O)c1ccc2c(c1)C(=NO)c1cc(S(=O)(=O)NC(CC)CC)ccc1-2 [TKD1034D, 9-(hydroxyimino)-N^2,N^7-di(pentan-3-yl)-9H-fluorene-2,7-disulfonamide]
EC50 (HT-1080 cells [1]; [4]): 0.51 µM

C#CC1(O)c2cc(S(=O)(=O)NC3CCCCC3)ccc2-c2ccc(S(=O)(=O)NC3CCCCC3)cc21 [TKD1066, N^2,N^7-dicyclohexyl-9-ethynyl-9-hydroxy-9H-fluorene-2,7-disulfonamide]
EC50 (HT-1080 cells [1]; [4]): 4.59 µM

CCCNS(=O)(=O)c1ccc2c(c1)C(=NO)c1cc(S(=O)(=O)NCCC)ccc1-2 [TKD1034E, 9-(hydroxyimino)-N^2,N^7-dipropyl-9H-fluorene-2,7-disulfonamide]
EC50 (HT-1080 cells [1]; [4]): 5.67 µM

O=S(=O)(NC1CCCCC1)c1ccc2c(c1)C(=NO)c1cc(S(=O)(=O)NC3CCCCC3)ccc1-2 [FIN56, reference compound]
EC50 (HT-1080 cells [1]; [3]): 0.326 µM
EC50 (HT-1080 cells [1]; Homo sapiens, HT-1080, 48 h, HT-1080 cells, 48 hour incubation, no inhibitor, read-out: EC50 (μM) of FIN56): 0.328 µM
EC50 (HT-1080 cells [1]; [4]): 0.328 µM
Slectivity in fold [EC50 (FIN56 + inhibitor)/ EC50 inhbitor] (HT-1080 cells [2]; DFOM (152 μM)): >60 fold
Slectivity in fold [EC50 (FIN56 + inhibitor)/ EC50 inhbitor] (HT-1080 cells [2]; Fer 1 (500 nM)): >90 fold
Slectivity in fold [EC50 (FIN56 + inhibitor)/ EC50 inhbitor] (HT-1080 cells [2]; ZVAD 45 μM): 0.6 fold
blocking of the compound's lethality by the apoptosis inhibitor pathway (ZVAD) (HT-1080 cells [2]; ZVAD 45 μM): did not block
Slectivity in fold [EC50 (FIN56 + inhibitor)/ EC50 inhbitor] (HT-1080 cells [2]; aToc (100 μM)): 34.8 fold
EC50 (HT-1080 cells [2]; cotreated with DFOM (152 μM)): > 20 µM
EC50 (HT-1080 cells [2]; cotreated with Fer 1 (500 nM)): > 30 µM
EC50 (HT-1080 cells [2]; cotreated with ZVAD (45 μM)): 0.196 µM
EC50 (HT-1080 cells [2]; cotreated with aToc (100 μM)): 11.5 µM

O=S(=O)(NC1CCCCC1)c1ccc2c(c1)C(Br)c1cc(S(=O)(=O)NC3CCCCC3)ccc1-2 [TKD1100, 9-bromo-N2,N^7-dicyclohexyl-9H-fluorene-2,7-disulfonamide]
EC50 (HT-1080 cells [1]; [4]): 3.56 µM
